Patent publication US11377442B2, “Small molecule agonists and antagonists of NR2F6 activity” (ZANDER THERAPEUTICS, INC., priority 2016, dated 2022)
Where two headings read alike, the source gives them in different places. One block for each molecule: values may come before it.

Tests used:
Type in all cases: cell-based
[1] = test system: HEK293 pGL4; experiment: Firefly_pGL signal, cmpd/DMSO (pGL4 control cells); settings: Homo sapiens
[2] = test system: Renilla; experiment: Renilla signal in NR2F6 agonist screening, cmpd/DMSO; settings: Renilla, F4
[3] = target: T1, NR2F6 LBD (Homo sapiens, UniProt P10588); experiment: NR2F6 LBD transient transfection; settings: LBD
T1 construct: expressed in transfected cells
T1 sequence (P10588 165-393 limits assumed): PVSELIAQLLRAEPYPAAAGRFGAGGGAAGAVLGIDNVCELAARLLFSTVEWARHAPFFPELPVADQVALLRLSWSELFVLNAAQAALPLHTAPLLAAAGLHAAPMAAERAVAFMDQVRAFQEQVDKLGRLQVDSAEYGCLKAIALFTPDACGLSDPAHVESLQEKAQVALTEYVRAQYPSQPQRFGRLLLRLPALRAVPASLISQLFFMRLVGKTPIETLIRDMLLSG
Outline: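 LBD-transfected cells treated at 40, 10, 2 and 0.5 μM (4 replicates); cytotoxicity measured in parallel, normalized to DMSO (0%) and zero signal (100%). Higher concentrations excluded where signal loss reflected toxicity.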

[4] = target: T2, NR2F6 (Homo sapiens, UniProt P10588); experiment: NR2F6 agonist screening, Firefly signal cmpd/DMSO; settings: for Activity, cmpd/DMSO: Table 31
T2 construct: expressed in transfected cells; also transient transfection
T2 sequence (P10588 1-404): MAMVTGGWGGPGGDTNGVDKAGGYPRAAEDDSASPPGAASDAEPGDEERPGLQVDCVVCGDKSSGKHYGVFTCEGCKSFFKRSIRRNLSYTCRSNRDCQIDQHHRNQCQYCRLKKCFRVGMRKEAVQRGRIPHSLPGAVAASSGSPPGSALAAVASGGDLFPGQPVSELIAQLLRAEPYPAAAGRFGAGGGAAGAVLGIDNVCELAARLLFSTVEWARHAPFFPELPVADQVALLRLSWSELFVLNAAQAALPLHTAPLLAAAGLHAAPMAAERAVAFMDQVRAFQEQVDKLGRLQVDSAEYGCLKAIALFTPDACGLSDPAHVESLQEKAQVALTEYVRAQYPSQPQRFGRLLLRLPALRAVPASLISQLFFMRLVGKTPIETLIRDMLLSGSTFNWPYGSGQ

[5] = HEK293, 0.5 uM, pGL4, read-out: Firefly pGL4, cmpd/DMSO (mean)
[6] = HEK293, 2 uM, pGL4, read-out: Firefly pGL4, cmpd/DMSO (mean)
[7] = HEK293, 10 uM, pGL4, read-out: Firefly pGL4, cmpd/DMSO (mean)
[8] = HEK293, 40 uM, pGL4, read-out: Firefly pGL4, cmpd/DMSO (mean)
[9] = HEK293, pGL4, 1% FBS, 0.5 uM, read-out: Firefly, pGL4, 1% FBS, cmpd/DMSO (mean)
[10] = HEK293, pGL4, 1% FBS, 2 uM, read-out: Firefly, pGL4, 1% FBS, cmpd/DMSO (mean)
[11] = HEK293, pGL4, 1% FBS, 10 uM, read-out: Firefly, pGL4, 1% FBS, cmpd/DMSO (mean)
[12] = HEK293, pGL4, 1% FBS, 40 uM, read-out: Firefly, pGL4, 1% FBS, cmpd/DMSO (mean)
[13] = HEK293, pGL4, 10% FBS, 0.5 uM, read-out: Firefly, pGL4, 10% FBS, cmpd/DMSO (mean)
[14] = HEK293, pGL4, 10% FBS, 2 uM, read-out: Firefly, pGL4, 10% FBS, cmpd/DMSO (mean)
[15] = HEK293, pGL4, 10% FBS, 10 uM, read-out: Firefly, pGL4, 10% FBS, cmpd/DMSO (mean)
[16] = HEK293, pGL4, 10% FBS, 40 uM, read-out: Firefly, pGL4, 10% FBS, cmpd/DMSO (mean)
[17] = read-out: Renilla, F4, cmpd/DMSO (mean)
[18] = 1% FBS, read-out: Renilla, F4, 1% FBS, cmpd/DMSO (mean)
[19] = 10% FBS, read-out: Renilla, F4, 10% FBS, cmpd/DMSO (mean)

Firefly LBD, cmpd/DMSO (mean) ([3]; 0.5 uM): 1.2
Firefly LBD, cmpd/DMSO (mean) ([3]; 2 uM): 1.8
Firefly LBD, cmpd/DMSO (mean) ([3]; 10 uM): 3.8
Firefly LBD, cmpd/DMSO (mean) ([3]; 40 uM): 0.7
Firefly F4, cmpd/DMSO (mean) ([4]; 0.5 uM): 1.1
Firefly F4, cmpd/DMSO (mean) ([4]; 2 uM): 2.4
Firefly F4, cmpd/DMSO (mean) ([4]; 10 uM): 5.5
Firefly F4, cmpd/DMSO (mean) ([4]; 40 uM): 0.9
F4, Firefly/Renilla for S/B(F4) > 3 ([4]; 1% FBS, 10 uM): 2.5
Firefly, F4/pGL4 for S/B(F4) > 3 ([4]; 1% FBS, 10 uM): 1.9
F4, Firefly/Renilla for S/B(F4) > 3 ([4]; 10% FBS, 10 uM): 4.3
Firefly, F4/pGL4 for S/B(F4) > 3 ([4]; 10% FBS, 10 uM): 3.4
F4, Firefly/Renilla for S/B(F4) > 3 ([4]; 10% FBS, 40 uM): 1.4
Firefly, F4/pGL4 for S/B(F4) > 3 ([4]; 10% FBS, 40 uM): 2.1
Firefly, F4, 1% FBS, cmpd/DMSO (mean) ([4]; 1% FBS, 0.5 uM): 1.5
Firefly, F4, 1% FBS, cmpd/DMSO (mean) ([4]; 1% FBS, 2 uM): 1.7
Firefly, F4, 1% FBS, cmpd/DMSO (mean) ([4]; 1% FBS, 10 uM): 4.9
Firefly, F4, 1% FBS, cmpd/DMSO (mean) ([4]; 1% FBS, 40 uM): 0.3
Firefly, F4, 10% FBS, cmpd/DMSO (mean) ([4]; 10% FBS, 0.5 uM): 1.0
Firefly, F4, 10% FBS, cmpd/DMSO (mean) ([4]; 10% FBS, 2 uM): 1.5
Firefly, F4, 10% FBS, cmpd/DMSO (mean) ([4]; 10% FBS, 10 uM): 8.9
Firefly, F4, 10% FBS, cmpd/DMSO (mean) ([4]; 10% FBS, 40 uM): 3.6
Activity, cmpd/DMSO [4]: 5.7
Compound: O=S1(=O)C[C@H](N2CCCCC2)[C@@H](S(=O)(=O)c2cccs2)C1 [Compound D105]
fold induction at 0.5 µM [1, 5]: 1.2
fold induction at 2 µM [1, 6]: 1.9
fold induction at 10 µM [1, 7]: 3.8
fold induction at 40 µM [1, 8]: 0.7
fold induction at 0.5 µM [1, 9]: 1.4
fold induction at 2 µM [1, 10]: 1.2
fold induction at 10 µM [1, 11]: 2.6
fold induction at 40 µM [1, 12]: 1.1
fold induction at 0.5 µM [1, 13]: 1.3
fold induction at 2 µM [1, 14]: 1.6
fold induction at 10 µM [1, 15]: 2.6
fold induction at 40 µM [1, 16]: 1.7
fold induction at 0.5 µM [2, 17]: 1.1
fold induction at 2 µM [2, 17]: 1.2
fold induction at 10 µM [2, 17]: 1.7
fold induction at 40 µM [2, 17]: 0.7
fold induction at 0.5 µM [2, 18]: 1.1
fold induction at 2 µM [2, 18]: 1.2
fold induction at 10 µM [2, 18]: 2
fold induction at 40 µM [2, 18]: 1.6
fold induction at 0.5 µM [2, 19]: 1.1
fold induction at 2 µM [2, 19]: 1.2
fold induction at 10 µM [2, 19]: 2.1
fold induction at 40 µM [2, 19]: 2.6

Firefly LBD, cmpd/DMSO (mean) ([3]; 0.5 uM): 1.2
Firefly LBD, cmpd/DMSO (mean) ([3]; 2 uM): 1.7
Firefly LBD, cmpd/DMSO (mean) ([3]; 10 uM): 4.0
Firefly LBD, cmpd/DMSO (mean) ([3]; 40 uM): 0.7
Firefly F4, cmpd/DMSO (mean) ([4]; 0.5 uM): 1.5
Firefly F4, cmpd/DMSO (mean) ([4]; 2 uM): 2.3
Firefly F4, cmpd/DMSO (mean) ([4]; 10 uM): 5.4
Firefly F4, cmpd/DMSO (mean) ([4]; 40 uM): 0.8
F4, Firefly/Renilla for S/B(F4) > 3 ([4]; 1% FBS, 10 uM): 2.5
Firefly, F4/pGL4 for S/B(F4) > 3 ([4]; 1% FBS, 10 uM): 1.7
F4, Firefly/Renilla for S/B(F4) > 3 ([4]; 10% FBS, 10 uM): 3.6
Firefly, F4/pGL4 for S/B(F4) > 3 ([4]; 10% FBS, 10 uM): 2.7
Firefly, F4, 1% FBS, cmpd/DMSO (mean) ([4]; 1% FBS, 0.5 uM): 0.9
Firefly, F4, 1% FBS, cmpd/DMSO (mean) ([4]; 1% FBS, 2 uM): 1.9
Firefly, F4, 1% FBS, cmpd/DMSO (mean) ([4]; 1% FBS, 10 uM): 4.6
Firefly, F4, 1% FBS, cmpd/DMSO (mean) ([4]; 1% FBS, 40 uM): 0.5
Firefly, F4, 10% FBS, cmpd/DMSO (mean) ([4]; 10% FBS, 0.5 uM): 1.6
Firefly, F4, 10% FBS, cmpd/DMSO (mean) ([4]; 10% FBS, 2 uM): 1.4
Firefly, F4, 10% FBS, cmpd/DMSO (mean) ([4]; 10% FBS, 10 uM): 7.1
Firefly, F4, 10% FBS, cmpd/DMSO (mean) ([4]; 10% FBS, 40 uM): 1.7
Activity, cmpd/DMSO [4]: 5.2
Compound: CC1CCN([C@H]2CS(=O)(=O)C[C@@H]2S(=O)(=O)c2cccs2)CC1 [Compound D106]
fold induction at 0.5 µM [1, 5]: 1.1
fold induction at 2 µM [1, 6]: 1.6
fold induction at 10 µM [1, 7]: 3.6
fold induction at 40 µM [1, 8]: 0.7
fold induction at 0.5 µM [1, 9]: 1.1
fold induction at 2 µM [1, 10]: 1.8
fold induction at 10 µM [1, 11]: 2.8
fold induction at 40 µM [1, 12]: 0.8
fold induction at 0.5 µM [1, 13]: 0.9
fold induction at 2 µM [1, 14]: 1.2
fold induction at 10 µM [1, 15]: 2.7
fold induction at 40 µM [1, 16]: 1.2
fold induction at 0.5 µM [2, 17]: 1
fold induction at 2 µM [2, 17]: 1.2
fold induction at 10 µM [2, 17]: 1.7
fold induction at 40 µM [2, 17]: 0.5
fold induction at 0.5 µM [2, 18]: 1.2
fold induction at 2 µM [2, 18]: 1.4
fold induction at 10 µM [2, 18]: 1.9
fold induction at 40 µM [2, 18]: 1.1
fold induction at 0.5 µM [2, 19]: 1.2
fold induction at 2 µM [2, 19]: 1.1
fold induction at 10 µM [2, 19]: 2
fold induction at 40 µM [2, 19]: 2
